In patent US6583132B1, “Oxidant scavengers” (Duke University, priority 1993, dated 2003):

Tests used:
[1] = test system: calf pulmonary artery endothelial cell cultures (CPA-47); test: Xanthine oxidase/xanthine-induced injury, LDH release; type: cell-based; conditions: 50 μM, 1 hour pre-incubation; XO plus 200 μM xanthine, 24 hours
Description: In a second study, calf pulmonary artery endothelial cell cultures (CPA-47 (Tissue and Cell 10:535 (1978)) were grown to confluence in Ham's F-12K medium with 10% fetal bovine serum at pH 7.4 and 37° C. Cells were then trypsinized and seeded at equal densities in 24 well plates and grown to 90% confluence. Cells were washed and pre-incubated for 1 hour with 50 μM of MnTBAO in minimum essential medium (MEM) or MEM only. Various amounts of xanthine oxidase (XO) plus 200 μM xanthine (X) were added and allowed to incubate for 24 hours. Cell injury was quantitated by measuring the release of cellular lactate dehydrogenase (LDH) into the medium.

[2] = test system: calf pulmonary artery endothelial cell cultures (CPA-47); test: Paraquat-induced injury of CPA-47 cells, LDH release; type: cell-based; conditions: varying concentrations; Paraquat 2 mM, 24 hours
Description: Calf pulmonary artery endothelial cell cultures (CPA-47) were grown to confluence in Ham's F-12K medium with 10% fetal bovine serum at pH 7.4 and 37° C. Cells were then trypsinized and seeded at equal densities in 24 well plates and grown to 90% confluence. Cells were washed and pre-incubated for 1 hour with varying concentrations of ZnTBAP in MEM or MEM only. Paraquat (2 mM) was added and allowed to incubate for 24 hours. Cell injury was quantitated by measuring the release of cellular lactate dehydrogenase (LDH) into the medium.

[3] = Paraquat-induced lung injury, BALF analysis; type: in vivo, Mice; conditions: 2.5 mg/ml nebulized 30 minutes twice daily for 2 days; paraquat 45 mg/kg ip; 48 hours
Description: Mice were treated with either paraquat (PQ, 45 mg/kg, ip) or saline (10 ml/kg, ip) and exposed to MnTBAP (2.5 mg/ml, nebulized into a 2 L chamber at 2 L/min for 30 minutes twice daily for 2 days) or room air. Mice were killed 48 hours after start of treatment and lung injury was assessed by analysis of bronchoalveolar lavage fluid (BALF). BALF damage markers used were lactate dehydrogenase (LDH, as units/L), proteins concentration (as mg/dl), and percent of polymorphonuclear leukocytes (PMN).

[4] = test system: Calf pulmonary endothelial cell (CPA-47) line; test: Glucose oxidase hydrogen peroxide injury of CPA-47, Cr^51 release; type: cell-based; conditions: glucose oxidase 100 Mu/ml, 4 hours; 1 hour pretreatment
Description: (§1) Calf pulmonary endothelial cell (CPA-47) line was grown to near confluence in 12-well plates with F-12K medium containing 10% fetal calf serum. CPA-47 cells were loaded with Cr^51 as previously described by Simon et al J. Clin. Invest. 78:1375 (1986) in high glucose minimum essential medium (DMEM). Cells were pretreated with MnTBAP (100 μM) for 1 hour and then exposed to various concentrations of hydrogen peroxide generator, glucose oxidase, for 4 hours. Cell injury was then quantitated as the specific Cr^51 release from CPA-47 cells which has been adjusted for spontaneous Cr51 release.
as §1, with “(J.” for “J.”, “(1986))” for “(1986)”, “various concentrations of either: (A) MnTBAP; (B) MnTMPyP; (C) ZnTBAP; or (D) CuZnSOD” for “MnTBAP (100 μM)”, “the” for “various concentrations of”, “oxidase (100 Mu/ml),” for “oxidase,”, “Cr^51” for “Cr51”

[5] = Peroxynitrite-induced oxidation of dihydrorhodamine 123; type: biochemical; conditions: peroxynitrite 5 μM; 10 μM dihydrorhodamine 123; 10 min, 22° C.; read-out: concentration giving 50% inhibition of oxidation of dihydrorhodamine 123 to rhodamine 123
Description: Measurement of peroxynitrite-induced oxidation of dihydrorhodamine 123: The peroxynitrite-dependent oxidation of dihydrorhodamine 123 to rhodamine 123, was measured based on the principles of the method described by Kooy et al, Free Radical Biol. Med. 16:149 (1994). Briefly, peroxynitrite at 5 μM was added into phosphate-buffered saline containing 10 μM dihydrorhodamine 123, in the absence of presence of MnTBAP (3-100 μM). After a 10 min incubation at 22° C., the fluorescence of rhodamine 123 was measured using a Perkin-Elmer fluorimeter (Model LS50B: Perkin-Elmer, Norwalk, Conn.) at an excitation wavelength of 500 mn, emission wavelength of 536 nm (slit widths 2.5 and 3.0 nm, respectively).

[6] = test system: descending thoracic aorta rings; test: NO-induced vascular relaxations of aortic rings; parameters: species or system New Zealand white rabbits; conditions: 100 μM; NO 75-300 nM
Description: Measurement of NO-induced vascular relaxations: New Zealand white rabbits weighing 3-4 kg were anesthetized with pentobarbital (30 mg/kg). The descending thoracic aorta was isolated, removed, cleaned and placed in Krebs buffer (pH 7.5). Vessels were cut into 5 mm rings and hung on stirrups connected to force transducers. Rings were suspended in 20 ml jacketed baths which were kept at 37° C. and bubbled with 95% O2 and 5% CO2. Rings were equilibrated with 2 g resting tension for 1 h before use and contracted with phenylephrine. Saturated NO solution was prepared by bubbling compressed NO gas through a NaOH trap and then into anaerobic deionized water. Aliquots of the nitric oxide solutions (final concentration: 75-300 nM) were added to the rings (in the presence or absence of 100 μM MnTBAP) and relaxant responses were recorded.

Mn(III) tetrakis (4-benzoic acid)porphyrin [MnTBAP]
XO/X-induced LDH release [1]: decrease in XO/X-induced LDH release | paraquat-induced LDH release / injury [2]: decreases paraquat-induced LDH release in a dose-dependent manner | protection against paraquat-induced lung injury [3]: partial protection | hydrogen peroxide-induced endothelial cell injury [4]: reduction | IC50 [5]: 30 µM | relaxations in vascular rings in response to authentic NO [6]: did not inhibit
